Where “and” joins values, the source holds several entries; their conditions need not be identical. Identical values can stand only once. Like-named read-outs stand apart in the source and are kept apart here.
Assays:
[1] = cited from earlier work
women [2] = settings: cited from earlier work; for serious adverse effects/events: general statement
[3] = test system: normal menstruating women; experiment: Pilot study of MEL 15 mg for 5 days in 3 normal menstruating women; type: in vivo, human
Method: A pilot study was performed using MEL 15 mg for 5 days in 3 normal menstruating women with a control no treatment but monitored cycle and a treatment cycle. Treatment was initiated when the participant was within one day of anticipated LH surge based on the control cycle.

women [4] = settings: emergency contraception; cited from earlier work
[5] = 1.5 mg single dose, n=1359 women, Plan B One Step label
[6] = 15 mg, 12 week rheumatoid arthritis placebo controlled trial, Mobic label
[7] = oral 15 mg for 5 days in normal women

In the case of `C#C[C@]1(O)CC[C@H]2[C@@H]3CCC4=CC(=O)CC[C@@H]4[C@H]3CC[C@@]21CC` [Levonorgestrel, levonorgestrel], the “mean peak blood level” value ([1]; 1.5 mg, immunoassay methodology) is given as 18 ng/mL, the “absorption from the gastrointestinal tract” value ([1]; in vivo) is given as “almost completely absorbed” and the enzyme principally metabolizing ([1]; in vivo) is given as “CYP3A4”. For the same compound, the estimated serum half-life ([1]; in vivo) was 27.5 h, the “mean peak serum level” value ([1]; two different laboratories, liquid chromatography and tandem mass spectrometry) was 18.3 ng/mL and 10.2 ng/mL and the breast tenderness (women [2]; [5]) was 8.2%. The “delay of menses >7 days” value (women [2]; [5]) was 4.5%, the dizziness (women [2]; [5]) was 9.6% and the fatigue (women [2]; [5]) was 13.3%. The headache (women [2]; [5]) was 10.3%, the heavy menstrual bleeding (women [2]; [5]) was 30.9% and the lower abdominal pain (women [2]; [5]) was 13.3%. For the same compound, the nausea (women [2]; [5]) was 13.7% and the serious adverse effects/events (women [2]; listed as LNG) was “have not been reported”.
In the case of `Cc1cnc(NC(=O)C2=C(O)c3ccccc3S(=O)(=O)N2C)s1` [Meloxicam, meloxicam], the “time to steady state concentration” value ([1]; 15 mg daily) is given as “three to five”, the “time of peak serum levels” value ([1]; depending upon food intake) is given as “five or six” and the enzyme principally metabolizing ([1]; in vivo) is given as “CYP2C9”. For the same compound, the “incidence of adverse events” value (women [2]; 15 mg taken daily for 18 days) was 33.7%, the serious adverse events (women [2]; 15 mg taken daily for 18 days) was “no serious adverse events reported” and the abdominal pain (women [2]; [6]) was 2.6%. The dizziness (women [2]; [6]) was 3.8%, the dyspepsia (women [2]; [6]) was 4.5% and the edema (women [2]; [6]) was 4.5%. The headache (women [2]; [6]) was 8.3%, the nausea (women [2]; [6]) was 3.8% and the skin rash (women [2]; [6]) was 0.6%. For the same compound, the serious adverse effects/events (women [2]) was “rare”, the adverse events (women [2]; [7]) was 27.3% and the bloating (women [2]; [7]) was 4.5%. For the same compound, the hot flushes (women [2]; [7]) was 9.0%, the low abdominal pain (women [2]; [7]) was 13.6% and the “effect on the LH surge dynamics” value [3] was “no effect”.
For `CC(=O)O[C@]1(C(C)=O)CC[C@H]2[C@@H]3CCC4=CC(=O)CCC4=C3[C@@H](c3ccc(N(C)C)cc3)C[C@@]21C` [ulipristal acetate], the “preventing pregnancy as interval from unprotected intercourse to use increases” value (women [4]) is listed as “superior to LNG”.
